The record followed here is patent US20130012429A1, “ANTI-VIRAL THERAPY” (priority 2011, published 2013).

Entries after “also recorded” stand apart in the source; their conditions may differ. No end group written: not given here.

The subject of one assay is HAMP mRNA. As to the kind of experiment: HAMP mRNA induction by BMP6, BMP9 or IL-6 in hepatoma cells pre-treated with TNF-alpha (qRT-PCR). It is filed as cell-based, human. The settings on record: TNF-alpha treatment. As to the method:
(§1) RNA extraction and cDNA synthesis were carried out by using either RNeasy kits with QIAshredder homogenization (both Qiagen) and the High capacity RNA-to-cDNA kit (Applied Biosystems), or by using the Cells-to-Ct kit (Applied Biosystems), all according to the manufacturers' protocols. qRT-PCR reactions were performed on an Applied Biosystems Fast 7500 Real-Time PCR System (Applied Biosystems). Gene expression was assessed using inventoried Taqman Gene Expression Assays (Applied Biosystems) (see table 4 for assay codes) with Taqman Gene Expression Master Mix (Applied Biosystems) following the manufacturer's instructions. cDNA was diluted in Nuclease-Free Water (Ambion) to achieve a final concentration of 1-3 ng/uL. Samples were run in duplicate and gene expression levels were quantified relative to glyceraldehyde-3-phosphate dehydrogenase (GAPDH) mRNA expression using the delta Ct method; in some cases relative expression was then quantified further by normalizing to the untreated controls (delta-delta Ct method).
(§2) The hepatoma cell line Hep3B were maintained in MMEM supplemented with 10% foetal calf serum (PAA), 2 mM glutamine, 100 U/mL penicillin, 0.1 mg/mL streptomycin (all Sigma). HuH7 and HuH7.5 cells were cultured in DMEM supplemented as above. HuH7.5 cells infected at a MOI of 0.02 or hepatoma cells pre-treated for 48 h with TNF-alpha at 20 ng/mL were incubated overnight with titrations of human recombinant BMP6 or BMP9, and in the case of TNF-alpha treated cells IL-6 (all R&D Systems). Titrations of TNF-alpha were applied for 48 h prior to RNA extraction. A neutralizing anti-TNF-alpha antibody (clone 1825), (R&D Systems) supplemented the culture medium of HCV infected HuH7.5 cells at 0.2 μg/mL and was added at each sub culture from 2 days post infection to the end of the infection course. Uninfected cells were cultured and treated in parallel with the HCV infected cells.
A general note: In qPCR the cycle at which signal appears reflects the starting amount.

Assay [1] relates to BMP/SMAD signalling pathway. In words: HJV, SMAD6 and SMAD7 mRNA in uninfected hepatoma (Hep3B) cells incubated with TNF-alpha (qRT-PCR). It is filed as cell-based, human. How it is done:
as §1, §2

In assay [2] the test system is SMAD1/5/8 phosphorylation. In words: Western blot of p-SMAD1/5/8 in Hep3B cells pre-treated with TNF-alpha and exposed to BMP6. In kind it is cell-based, human. How it is done: Hep3B cells were exposed to TNF-alpha at 20 ng/mL for 48 hours before the addition of BMP6 at an end concentration of 2 nM. Lysates were harvested at either 1 h or 18 h post addition of BMP6. Briefly, cells were trypsinised and lysed for 20 min on ice in NP40 1% buffer supplemented with protease inhibitors (Sigma) at 1:500 and phosphatase inhibitor cocktail 2 (Sigma) at 1:100. The lysates were spun at 4° C., 13,000 rpm for 5 minutes and the supernatants stored at −80° C. until the blot was performed. Briefly, the protein content of the lysates was normalised using the BCA assay (Pierce) and run on 12% SDS-PAGE mini gels. Gels were blotted onto nitrocellulose membranes (GE Healthcare) and then blocked for 1 hour at room temperature in PBS containing 5% (w/v) milk. Membranes were then probed overnight at 4° C. in TBS-TWEEN containing 5% (w/v) BSA with the following primary antibodies: mouse anti-beta-actin (loading control) (Sigma), mouse anti-rabbit IgG (negative control) (Dako), rabbit anti-pSMAD1/5/8 (Cell Signalling), or rabbit anti-H.Pylori (negative control) (Dako). […] Membranes were developed using ECL reagent (GE Healthcare), films were scanned using an AlphaScan (Alpha Innotech) running Epson Scan software (Seiko Epson), and band intensities were determined using ImageQuant5.2 (Molecular Dynamics).
Background: In western blotting, separated proteins are transferred to a membrane and probed.

A further assay deals with HCV (Jc1 HCV strain). As to the kind of experiment: Antiviral experiments: HCV-RNA in supernatants and cells of HCV-infected HuH7.5 cells (qRT-PCR). It is filed as cell-based, hepatitis C virus. An excerpt: The Jc1 HCV strain was produced as described previously (Reference 20). Briefly, HuH7.5 cells were transfected with Jc1 RNA by electroporation and supernatants harvested 14-20 days post transfection. HuH7.5 cells were infected at a multiplicity of infection (MOI) of 0.02 unless otherwise stated. Infection was allowed to proceed for 9-11 days at which point infection was greater than 90% as determined by immunofluorescence (also described in Reference 20).
5 day time course: cells infected as described above at a MOI of 0.02 for 2 h were plated and then immediately treated with BMP6 at the doses stated in the figures for the duration of the infection. 10 day time course: cells infected for 2 h were plated and incubated for 3 days. Cells were sub-cultured and BMP6 added at the stated doses. Additional doses of the same concentration were applied at further sub-culturing to maintain the dose. For both time courses, IFNa (PBL Biomedical Laboratories) was added at 1000 U overnight either at day 4 (5 day time course) or day 9 (10 day time course). Supernatant RNA extraction was performed using QIAamp viral RNA extraction kit and total cellular RNA was extracted using RNeasy kit (both Qiagen). cDNA was then transcribed using the Superscript III Reverse transcriptase (Invitrogen) (random hexamers), all according to the manufacturers' protocols. HCV-RNA levels were measured using qRT-PCR in a LightCycler 480 Real-Time PCR System (Roche). cDNA at 10-100 ng/uL was amplified using RC1 (5′ […] 3′ (SEQ ID NO:3)) and RC21(5′ […] 3′ (SEQ ID NO:4)) primers. Each reaction was run in duplicate. HCV-RNA levels were quantified using a standard curve derived from HCV Jc1 cDNA.

In assay [3] the test system is Influenza A Virus Strain PR8. It is filed as cell-based. The following applies: infected HuH7 cells mixed 1:10 with uninfected, cultured 24 hours; compared with interferon alpha and beta; FIG. 2.
Setting [4] is: 1 uM hepcidin peptide added 3 days after HCV inoculation, a further 7 days, FIG. 11.

On to TNF-alpha, for which the “mean suppression of HAMP mRNA upregulation in response to BMP6” value in the assay with HAMP mRNA (FIG. 9b) worked out at 16.8 fold. In the assay on HAMP mRNA (FIG. 9c), the “mean suppression of HAMP mRNA upregulation in response to BMP9” value was determined as 4.3 fold. Also, the “hepcidin response to IL-6” value with HAMP mRNA (FIG. 10) is “blunted”. Moreover, in assay [1] (FIG. 5e), the “HJV mRNA levels” value was “reduced”. Moreover, in assay [1] (FIG. 5f), the “SMAD6 mRNA” value is listed as “increased” and the “SMAD7 mRNA” value is “increased”. In addition, in assay [2] (18 hr exposure to BMP6, TNF-alpha pre-treatment), the “inhibition of SMAD1/5/8 phosphorylation stimulated by BMP6” value is about 35%. In addition, the “p-SMAD1/5/8 after incubation with BMP6” value in assay [2] (Hep3B cells, BMP6 for both 1 hr and 18 hr, FIG. 9a) is recorded as “reduced”.

On to “hepcidin: hepcidin peptide, the iron regulatory hormone encoded by HAMP, added exogenously at 1 uM (DTHFPICIFCCGCCHRSKCGMCCKT; ends and bridges not checked; cysteine pairing not given here; UniProt P81172 60-84, looked up)”, for which, in the assay on HCV (Jc1 HCV strain) (setting [4]), the “HCV RNA in cells” value is on record as “not significantly altered” and the “HCV RNA in supernatant” value is reported as “not significantly altered”. Besides, in the assay with HCV (Jc1 HCV strain) (FIG. 11), the “effect on HCV replication” value is given as “No specific effect”.

B1: BMP6: human recombinant BMP6 (R&D Systems), a bone morphogenetic protein that stimulates the BMP/SMAD signalling pathway (protein, UniProt P22004 375-513, looked up)
Bone morphogenetic protein 6: SASSRRRQQSRNRSTQSQDVARVSSASDYNSSELKTACRKHELYVSFQDLGWQDWIIAPKGYAANYCDGECSFPLNAHMNATNHAIVQTLVHLMNPEYVPKPCCAPTKLNAISVLYFDDNSNVILKKYRNMVVRACGCH
On to B1, for which, in assay [3], the “spread of the Influenza virus (level of haemagglutinin)” value is reported as “restricts spread of the Influenza virus”. Besides, the “viral RNA in supernatants, established infection” value is given as “reduced modestly” with HCV (Jc1 HCV strain) (2 nM BMP6 added after 3 days of HCV replication, measured after a further 7 days); “reduced modestly” with HCV (Jc1 HCV strain) (6 nM BMP6 added after 3 days of HCV replication, measured after a further 7 days); “lower” with HCV (Jc1 HCV strain) (10 days post-infection, 18 nM BMP6 for 7 days or IFNa overnight, FIG. 12c). Further, in the assay on HCV (Jc1 HCV strain) (5 days post-infection, BMP6 at all doses for the duration of the infection, IFNa overnight, FIG. 12b), the “culture supernatant HCV RNA after 5 days” value is on record as “significantly reduced; also recorded: significantly lower”. Moreover, the “cellular HCV RNA, established infection” value in the assay on HCV (Jc1 HCV strain) (10 days post-infection, 18 nM BMP6 for 7 days or IFNa overnight, FIG. 12d) is “significantly reduced; also recorded: lower”. Besides, the “accumulation of HCV RNA in culture supernatants over time” value with HCV (Jc1 HCV strain) (BMP6 added immediately after infecting HuH7.5 cells, 5 day time course, FIG. 12a) is given as “severely restricted; also recorded: reduced”. The “suppression of HCV growth” value with HCV (Jc1 HCV strain) (in vitro live virus model, over 5 days) is recorded as “over 90%”.
